{
  "source": "patent US12617779B2",
  "about": "“Self degradation-type CDK9 inhibitor prodrug and liposome encapsulating same” (Sumitomo Pharma Co., Ltd., priority 2021, dated 2026)",
  "test": "Evaluation of conversion rate to active form in buffer solution (Experimental Example 1)",
  "assay_type": "physicochemical",
  "details": "for Production rate of Alvocidib / Residual rate: 37° C., 25 umol/L in buffer solution",
  "summary_of_the_method": "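Conversion to Alvocidib and loss of parent were followed by HPLC over 3 h (samples at 0, 0.5, 1, 2, 3 h). Incubations used 25 umol/L compound at 37 °C across pH 5.0–7.4, in 50 mM citrate below pH 6.0 and 50 mM phosphate from pH 6.0 upward.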",
  "data": [
    {"smiles": "CN1CC[C@H](c2c(OC(=O)N(C)C[C@H]3CCCCN3)cc(O)c3c(=O)cc(-c4ccccc4Cl)oc23)[C@H](O)C1", "note": "[Example 4, 2-(2-chlorophenyl)-5-hydroxy-8-[(3S,4R)-3-hydroxy-1-methylpiperidin-4-yl]-4-oxo-4H-1-benzopyran-7-yl methyl{[(2R)-piperidin-2-yl]methyl}carbamate]", "values": [
      {"measurement": "Production rate of Alvocidib", "setting": "pH5.0, 0 hr", "result": 0.5, "unit": "%"},
      {"measurement": "Residual rate", "setting": "pH5.0, 0 hr", "result": 99.3, "unit": "%"},
      {"measurement": "Stability in buffer solution at pH 5", "setting": "pH 5, 37° C., up to 2 or 3 hours", "result": "stable"},
      {"measurement": "Production rate of Alvocidib", "setting": "pH5.0, 0.5 hr", "result": 0.8, "unit": "%"},
      {"measurement": "Residual rate", "setting": "pH5.0, 0.5 hr", "result": 98.5, "unit": "%"},
      {"measurement": "Production rate of Alvocidib", "setting": "pH5.0, 1 hr", "result": 1.1, "unit": "%"},
      {"measurement": "Residual rate", "setting": "pH5.0, 1 hr", "result": 98.0, "unit": "%"},
      {"measurement": "Production rate of Alvocidib", "setting": "pH5.0, 2 hr", "result": 1.7, "unit": "%"},
      {"measurement": "Residual rate", "setting": "pH5.0, 2 hr", "result": 96.8, "unit": "%"},
      {"measurement": "Production rate of Alvocidib", "setting": "pH5.0, 3 hr", "result": 2.3, "unit": "%"},
      {"measurement": "Residual rate", "setting": "pH5.0, 3 hr", "result": 95.6, "unit": "%"},
      {"measurement": "Production rate of Alvocidib", "setting": "pH5.5, 0 hr", "result": 0.4, "unit": "%"},
      {"measurement": "Residual rate", "setting": "pH5.5, 0 hr", "result": 99.2, "unit": "%"},
      {"measurement": "Production rate of Alvocidib", "setting": "pH5.5, 0.5 hr", "result": 1.5, "unit": "%"},
      {"measurement": "Residual rate", "setting": "pH5.5, 0.5 hr", "result": 97.1, "unit": "%"},
      {"measurement": "Production rate of Alvocidib", "setting": "pH5.5, 1 hr", "result": 2.2, "unit": "%"},
      {"measurement": "Residual rate", "setting": "pH5.5, 1 hr", "result": 95.5, "unit": "%"},
      {"measurement": "Production rate of Alvocidib", "setting": "pH5.5, 2 hr", "result": 4.0, "unit": "%"},
      {"measurement": "Residual rate", "setting": "pH5.5, 2 hr", "result": 91.4, "unit": "%"},
      {"measurement": "Production rate of Alvocidib", "setting": "pH5.5, 3 hr", "result": 5.5, "unit": "%"},
      {"measurement": "Residual rate", "setting": "pH5.5, 3 hr", "result": 87.9, "unit": "%"},
      {"measurement": "Production rate of Alvocidib", "setting": "pH6.0, 0 hr", "result": 0.4, "unit": "%"},
      {"measurement": "Residual rate", "setting": "pH6.0, 0 hr", "result": 99.3, "unit": "%"},
      {"measurement": "Production rate of Alvocidib", "setting": "pH6.0, 0.5 hr", "result": 3.7, "unit": "%"},
      {"measurement": "Residual rate", "setting": "pH6.0, 0.5 hr", "result": 91.9, "unit": "%"},
      {"measurement": "Production rate of Alvocidib", "setting": "pH6.0, 1 hr", "result": 6.4, "unit": "%"},
      {"measurement": "Residual rate", "setting": "pH6.0, 1 hr", "result": 85.6, "unit": "%"},
      {"measurement": "Production rate of Alvocidib", "setting": "pH6.0, 2 hr", "result": 12.0, "unit": "%"},
      {"measurement": "Residual rate", "setting": "pH6.0, 2 hr", "result": 72.4, "unit": "%"},
      {"measurement": "Production rate of Alvocidib", "setting": "pH6.0, 3 hr", "result": 16.6, "unit": "%"},
      {"measurement": "Residual rate", "setting": "pH6.0, 3 hr", "result": 61.7, "unit": "%"},
      {"measurement": "Production rate of Alvocidib", "setting": "pH6.5, 0 hr", "result": 0.5, "unit": "%"},
      {"measurement": "Residual rate", "setting": "pH6.5, 0 hr", "result": 99.3, "unit": "%"},
      {"measurement": "Production rate of Alvocidib", "setting": "pH6.5, 0.5 hr", "result": 9.0, "unit": "%"},
      {"measurement": "Residual rate", "setting": "pH6.5, 0.5 hr", "result": 79.5, "unit": "%"},
      {"measurement": "Production rate of Alvocidib", "setting": "pH6.5, 1 hr", "result": 15.1, "unit": "%"},
      {"measurement": "Residual rate", "setting": "pH6.5, 1 hr", "result": 65.1, "unit": "%"},
      {"measurement": "Production rate of Alvocidib", "setting": "pH6.5, 2 hr", "result": 26.1, "unit": "%"},
      {"measurement": "Residual rate", "setting": "pH6.5, 2 hr", "result": 39.7, "unit": "%"},
      {"measurement": "Production rate of Alvocidib", "setting": "pH6.5, 3 hr", "result": 32.7, "unit": "%"},
      {"measurement": "Residual rate", "setting": "pH6.5, 3 hr", "result": 24.9, "unit": "%"},
      {"measurement": "Production rate of Alvocidib", "setting": "pH7.0, 0 hr", "result": 0.6, "unit": "%"},
      {"measurement": "Residual rate", "setting": "pH7.0, 0 hr", "result": 98.8, "unit": "%"},
      {"measurement": "Production rate of Alvocidib", "setting": "pH7.0, 0.5 hr", "result": 21.3, "unit": "%"},
      {"measurement": "Residual rate", "setting": "pH7.0, 0.5 hr", "result": 51.3, "unit": "%"},
      {"measurement": "Production rate of Alvocidib", "setting": "pH7.0, 1 hr", "result": 31.6, "unit": "%"},
      {"measurement": "Residual rate", "setting": "pH7.0, 1 hr", "result": 27.7, "unit": "%"},
      {"measurement": "Production rate of Alvocidib", "setting": "pH7.0, 2 hr", "result": 41.1, "unit": "%"},
      {"measurement": "Residual rate", "setting": "pH7.0, 2 hr", "result": 0.0, "unit": "%"},
      {"measurement": "Production rate of Alvocidib", "setting": "pH7.0, 3 hr", "result": 43.3, "unit": "%"},
      {"measurement": "Residual rate", "setting": "pH7.0, 3 hr", "result": 0.0, "unit": "%"},
      {"measurement": "Production rate of Alvocidib", "setting": "pH7.4, 0 hr", "result": 0.8, "unit": "%"},
      {"measurement": "Residual rate", "setting": "pH7.4, 0 hr", "result": 98.4, "unit": "%"},
      {"measurement": "Conversion to Alvocidib at pH 7.4", "setting": "pH 7.4, 37° C., up to 3 hours", "result": "rapidly converted to Alvocidib"},
      {"measurement": "Production rate of Alvocidib", "setting": "pH7.4, 0.5 hr", "result": 34.8, "unit": "%"},
      {"measurement": "Residual rate", "setting": "pH7.4, 0.5 hr", "result": 21.5, "unit": "%"},
      {"measurement": "Production rate of Alvocidib", "setting": "pH7.4, 1 hr", "result": 42.0, "unit": "%"},
      {"measurement": "Residual rate", "setting": "pH7.4, 1 hr", "result": 0.0, "unit": "%"},
      {"measurement": "Production rate of Alvocidib", "setting": "pH7.4, 2 hr", "result": 44.6, "unit": "%"},
      {"measurement": "Residual rate", "setting": "pH7.4, 2 hr", "result": 0.0, "unit": "%"},
      {"measurement": "Production rate of Alvocidib", "setting": "pH7.4, 3 hr", "result": 44.6, "unit": "%"},
      {"measurement": "Residual rate", "setting": "pH7.4, 3 hr", "result": 0.0, "unit": "%"}
    ]}
  ]
}
